For assay [1], the target named is T1, endothelin receptor A (ETA) (Sus scrofa, UniProt Q29010).
T1 construct: A membrane fraction prepared from the porcine heart; from tissue; host or cells: porcine heart membrane fraction
T1 sequence (Q29010 21-427): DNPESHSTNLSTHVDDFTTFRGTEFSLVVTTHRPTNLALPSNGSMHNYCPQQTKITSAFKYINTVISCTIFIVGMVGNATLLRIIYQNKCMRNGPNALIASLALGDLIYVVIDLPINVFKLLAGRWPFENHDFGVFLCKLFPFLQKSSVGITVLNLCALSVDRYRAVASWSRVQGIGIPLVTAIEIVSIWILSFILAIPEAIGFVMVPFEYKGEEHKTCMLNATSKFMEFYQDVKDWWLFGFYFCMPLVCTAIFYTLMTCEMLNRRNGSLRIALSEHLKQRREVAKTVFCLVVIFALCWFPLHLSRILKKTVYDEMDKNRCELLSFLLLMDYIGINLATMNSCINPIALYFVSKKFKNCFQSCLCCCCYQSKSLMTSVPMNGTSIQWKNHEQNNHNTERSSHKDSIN
Put plainly: Assay of affinity for receptor (1): binding activity on ETA receptor, 125I-labeled endothelin-1, porcine heart membrane fraction. Set-up: key: relative specific activity; reference cyclic pentapeptide ETA binding = 1.0. Conditions: specific activity, taking the binding activity of control cyclo[-D-Glu-Ala-D-aIle-Leu-D-Trp-] on receptor A as 1.0, 25°C, 1 hour. The protocol: Assay of Affinity for Receptor (1) ... Binding Activity on ETA Receptor
A membrane fraction prepared from the porcine heart was diluted to 0.15 mg/ml by using a buffer solution for assay, and 100 µl of the resulting suspension of the membrane fraction was poured into each assay tube to use for assay. To this suspension of the membrane fraction was added 2 µl of 5 nM ^125I-labeled endothelin-1 solution. Further, 3 µl of a test peptide solution was added thereto, followed by incubation at a temperature of 25°C for 1 hour. Then, the resulting suspension was diluted with 900 µl of the buffer solution for assay cooled with ice, and thereafter separated into a supernatant and a precipitate by centrifugation at 12,000 X g for 10 minutes. Cell membranes and an endothelin receptor A (ETA) embedded therein were contained in the precipitate, and radioactive iodine-labeled endothelin combined with the receptor was also recovered in the precipitate. Accordingly, the amount of radioactive iodine-labeled endothelin combined with the endothelin receptor A (ETA) was determined by measuring the amount of radioactive iodine contained in the precipitate with a gamma-ray counter. The cyclic pentapeptide described in Japanese Patent Application No. 2-413328/1990, cyclo[-D-Glu-Ala-D-aIle-Leu-D-Trp-], was used as a control compound. The numerical value of ETA shown in Table 1 is the value of specific activity, taking the binding activity of this cyclic pentapeptide on the receptor A as 1.0. The binding activity (IC50) of this cyclic pentapeptide on the ETA receptor is 2x10^-6 M.

Another assay deals with ETB. Put plainly: ETB radio receptor assay *2, 125I-endothelin-1, guinea pig kidney crude membrane fraction. Format: binding, Guinea pigs. The following applies: relative activity, 37 °C, 90 minutes. The protocol: ETB Radio Receptor Assay *2
In the endothelin radio receptor assay, guinea pigs' kidneys were used. Guinea pigs (Std Hartrey, male 250 g, Japan SLC Ltd.) were made to have a cerebral concussion and sacrificed by bleeding from carotid arteries to pick up the kidneys and removed fat therefrom to prepare the kidneys. The obtained kidneys were sliced and homogenized by politron homogenizer in 20 ml of 50 mM Tris-HCl buffer [pH 7.4; 20 mM NaHCO3, 0.1 mM PMSF (Phenylmethylsulfonyl Fluoride), 1 mM EDTA (Ethylenediaminetetraacetic acid)] per one kidney. The homogenized kidney was applied to a centrifugation at 1,000 x g for 15 minutes and the supernatant was further applied to a centrifugation for 20 minutes at 30,000 x g. The resulting precipitate was twice washed with 50 mM Tris-HCl buffer (pH 7.4) containing 0.1 mM PMSF, 1 mM EDTA. The resultant was stored at -80 °C as a crude receptor membrane fraction and was used as the suspension in the following buffer when necessary.
740 Bq of ^125I-endothelin-1 (81.4 TBq/mmol, Du Pont, USA) as a radio ligand, the crude membrane fraction (2.1 µg protein) and samples were added to the following buffer. The reaction was performed at 37 °C, for 90 minutes in 0.2 ml of the buffer [50 mM Tris-HCl buffer (pH 7.4) containing 0.1 mM PMSF, 1 mM EDTA, 0.2% bovine serum albumin].
The reaction was stopped by fast filtration on a glass filter (GF/B, Wattman, USA) by Cell Harvestor (290 PHD, Cambridge-Technology, Great Britain), and the filter was three times washed with 50 mM Tris-HCl buffer (pH 7.4). Radio activity remained on the filter was assayed by a gamma counter.

The source of these data is patent EP0552417B1, “Cyclic peptides and use thereof” (priority 1991, dated 1993).

Non-standard residues stand in square brackets, D forms with d. Residues, ends and D or L forms follow the SMILES beside them. NMeW = CN[C@@H](Cc1c[nH]c2ccccc12)C(=O)O; NMeL = CN[C@@H](CC(C)C)C(=O)O

In the case of `CC(C)C[C@@H]1NC(=O)[C@@H](CC(C)C)NC(=O)[C@H](CC(=O)O)NC(=O)[C@H](Cc2c[nH]cn2)NC(=O)[C@@H](CC(=O)O)NC(=O)[C@@H](Cc2c[nH]c3ccccc23)NC1=O` [Example 83, Cyclo[-D-Asp-His-Asp-D-Leu-Leu-D-Trp-]] (cyclo(D[dL]L[dW][dD]H)), the “Binding Activity on ET Receptor (R. act.) ETA” value in assay [1] was determined as 15. Further, in the assay on ETB, the “Binding Activity on ET Receptor (R. act.) ETB*2” value turned out to be 43.

Regarding `CC(C)C[C@@H]1NC(=O)[C@@H](CC(C)C)NC(=O)[C@H](CC(=O)O)NC(=O)[C@H](C(C)C)NC(=O)[C@@H](CC(=O)O)NC(=O)[C@@H](Cc2c[nH]c3ccccc23)NC1=O` [Example 17, Cyclo[-D-Asp-Val-Asp-D-Leu-Leu-D-Trp-]] (cyclo(D[dL]L[dW][dD]V)), in assay [1], the “Binding Activity on ET Receptor (R. act.) ETA” value is on record as 3.7. Also, the “Binding Activity on ET Receptor (R. act.) ETB*2” value in the assay with ETB was determined as 22.

Consider `CC(C)C[C@@H]1NC(=O)[C@@H](CC(C)C)NC(=O)[C@H](CC(=O)O)NC(=O)[C@@H](C)NC(=O)[C@@H](CC(=O)O)NC(=O)[C@@H](Cc2c[nH]c3ccccc23)NC1=O` [Example 15, Cyclo[-D-Asp-D-Ala-Asp-D-Leu-Leu-D-Trp-]] (cyclo(D[dL]L[dW][dD][dA])), for which the “Binding Activity on ET Receptor (R. act.) ETA” value in assay [1] turned out to be 5.7. Moreover, in the assay with ETB, the “Binding Activity on ET Receptor (R. act.) ETB*2” value is listed as 7.7.

Turning to `CC(C)C[C@@H]1NC(=O)[C@@H](CC(C)C)NC(=O)[C@H](CC(=O)O)NC(=O)[C@H](CC(C)C)N(C)C(=O)[C@@H](CC(=O)O)NC(=O)[C@@H](Cc2c[nH]c3ccccc23)NC1=O` [Example 47, Cyclo[-D-Asp-N-MeLeu-Asp-D-Leu-Leu-D-Trp-]] (cyclo(D[dL]L[dW][dD][NMeL])), the “Binding Activity on ET Receptor (R. act.) ETA” value in assay [1] was determined as 6.8. In the assay with ETB, the “Binding Activity on ET Receptor (R. act.) ETB*2” value was found to be 17.

For `CC(C)C[C@@H]1NC(=O)[C@@H](CC(C)C)NC(=O)[C@H]2CCCN2C(=O)[C@H](CC(=O)O)NC(=O)[C@@H](CC(=O)O)NC(=O)[C@@H](Cc2c[nH]c3ccccc23)NC1=O` [Example 31, Cyclo[-D-Asp-Asp-D-Pro-D-Leu-Leu-D-Trp-]] (cyclo(D[dP][dL]L[dW][dD])), the “Binding Activity on ET Receptor (R. act.) ETA” value in assay [1] turned out to be 2.6. Moreover, the “Binding Activity on ET Receptor (R. act.) ETB*2” value with ETB came to 1.0.

For the molecule `CC(C)C[C@@H]1NC(=O)[C@@H](CC(C)C)NC(=O)[C@H](CC(=O)O)NC(=O)[C@H](Cc2c[nH]c3ccccc23)N(C)C(=O)[C@@H](CC(=O)O)NC(=O)[C@@H](Cc2c[nH]c3ccccc23)NC1=O` [Example 67, Cyclo[-D-Asp-N-MeTrp-Asp-D-Leu-Leu-D-Trp-]] (cyclo(D[dL]L[dW][dD][NMeW])), in assay [1], the “Binding Activity on ET Receptor (R. act.) ETA” value is recorded as 9.1. In the assay with ETB, the “Binding Activity on ET Receptor (R. act.) ETB*2” value was 30.

Take `CC(C)C[C@@H]1NC(=O)[C@@H](CC(C)C)NC(=O)[C@H](C)NC(=O)[C@@H](CCC(=O)O)NC(=O)[C@@H](CC(=O)O)NC(=O)[C@@H](Cc2c[nH]c3ccccc23)NC1=O` [Example 28, Cyclo[-D-Asp-D-Glu-Ala-D-Leu-Leu-D-Trp-]] (cyclo(A[dL]L[dW][dD][dE])): the “Binding Activity on ET Receptor (R. act.) ETA” value in assay [1] was determined as 5.7. Also, the “Binding Activity on ET Receptor (R. act.) ETB*2” value with ETB was 5.3.

In the case of `CC(C)C[C@@H]1NC(=O)[C@@H](CC(C)C)NC(=O)[C@H](C)NC(=O)[C@H](CC(=O)O)NC(=O)[C@@H](CC(=O)O)NC(=O)[C@@H](Cc2c[nH]c3ccccc23)NC1=O` [Example 6, cyclo[-D-Asp-Asp-Ala-D-Leu-Leu-D-Trp-]] (cyclo(A[dL]L[dW][dD]D)), in assay [1], the “Binding Activity on ET Receptor (R. act.) ETA” value was 6.0. In addition, the “Binding Activity on ET Receptor (R. act.) ETB*2” value with ETB worked out at 7.1.

Take `CC(C)C[C@@H]1NC(=O)[C@@H](CC(C)C)NC(=O)[C@H](CC(=O)O)NC(=O)[C@H](Cc2ccccc2)NC(=O)[C@@H](CC(=O)O)NC(=O)[C@@H](Cc2c[nH]c3ccccc23)NC1=O` [Example 19, Cyclo[-D-Asp-Phe-Asp-D-Leu-Leu-D-Trp-]] (cyclo(D[dL]L[dW][dD]F)): the “Binding Activity on ET Receptor (R. act.) ETA” value in assay [1] was determined as 8.3. Also, the “Binding Activity on ET Receptor (R. act.) ETB*2” value in the assay on ETB is reported as 7.1.
